This is an account of results in patent US12195435B2, “5-methylchromone and the preparation method and application thereof” (HAINAN MEDICAL UNIVERSITY, priority 2020, dated 2025).

In general, IC50 refers to the concentration that gives 50% inhibition.

In the assay the target is tyrosinase. Nature of the assay: Determination of the activity of compounds inhibiting tyrosinase (L-tyrosine substrate, absorbance at 475 nm). The format is biochemical. The settings on record: for IC50: L-tyrosine 0.1 mg/mL, tyrosinase 48 U/mL, pH 6.8, 37° C. 30 min, n = 3, read-out: IC50 ± SEM (tyrosinase inhibition); for tyrosinase inhibitory activity (in words, compared with aloesin): comparison with positive control aloesin. Here is the method:
Method for determining the activity of inhibiting tyrosinase: Firstly, adding the sample: 40 μL (10% DMSO, setting different concentrations (0, 25, 50, 100, 200 μg/mL)) into a 96-well plate (aloesin is the positive control), then adding L-tyrosine: 40 μL (0.1 mg/mL, dissolving in 0.1M potassium phosphate buffer solution, pH=6.8), tyrosinase: 40 μL (48 U/mL, dissolving in 0.1M potassium phosphate buffer solution, pH=6.8), and finally diluting the volume to 200 μL with potassium phosphate buffer solution, and detecting the absorbance at 475 nm on 0 min; after incubating at 37° C. for 30 min, measuring the absorbance.

Regarding `Cc1cc(=O)c2c(C)cc(O)cc2o1` [Compound 1-1], the half-inhibitory concentration (IC50) worked out at 9300 ± 90 µM.

Regarding `Cc1cc(O)cc2oc(C(C)(C)C)cc(=O)c12` [Compound 1-4], the concentration for half-maximal inhibition (IC50) worked out at 5400 ± 30 µM.

In the case of `CCCc1cc(=O)c2c(C)cc(OC)cc2o1` [Compound 1-5], the IC50 amounted to 200 ± 70 µM and the “tyrosinase inhibitory activity (in words, compared with aloesin)” value is “higher than the tyrosinase inhibitory activity of aloesin”.

In the case of `CCc1cc(=O)c2c(C)cc(O)cc2o1` [Compound 1-2], the half-maximal inhibitory concentration (IC50) stood at 6200 ± 70 µM.

For the molecule `CCCc1cc(=O)c2c(C)cc(O)cc2o1` [Compound 1-3], the half-maximal inhibitory concentration (IC50) turned out to be 2400 ± 100 µM.

As to `CCCc1cc(=O)c2c(C)cc(OCC)cc2o1` [Compound 1-6], the half-inhibitory concentration (IC50) worked out at 600 ± 30 µM and the “tyrosinase inhibitory activity (in words, compared with aloesin)” value is “higher than the tyrosinase inhibitory activity of aloesin”.

For the molecule `CC(=O)Cc1cc(=O)c2c(C)cc(O)c([C@@H]3O[C@H](CO)[C@@H](O)[C@H](O)[C@H]3O)c2o1` [Aloesin, aloesin, reference compound], the IC50 stood at 2700 ± 40 µM.
